Data from ChEMBL document CHEMBL1139986, “Synthesis and biodistribution of 8-iodo-11-(4-methylpiperazino)-5H-dibenzo[b,e][1,4]-diazepine: Iozapine” (Bioorg Med Chem Lett, 2007).

Columns and labels:
Details in all cases: in vivo
Oryctolagus cuniculus [1] = organism: Oryctolagus cuniculus; experiment: Biodistribution in rabbit whole body at 20 MBq after 20.0 hrs; type: ADME, organism-based
Lung [2] = experiment: Biodistribution in rabbit lung at 20 MBq; type: ADME, organism-based, Oryctolagus cuniculus
Oryctolagus cuniculus [3] = organism: Oryctolagus cuniculus; experiment: Biodistribution in rabbit whole body at 20 MBq; type: ADME, organism-based
Oryctolagus cuniculus [4] = organism: Oryctolagus cuniculus; experiment: Biodistribution in rabbit whole body at 20 MBq after 0.5 hrs; type: ADME, organism-based
Oryctolagus cuniculus [5] = organism: Oryctolagus cuniculus; experiment: Biodistribution in rabbit whole body at 20 MBq after 1 hr; type: ADME, organism-based
Oryctolagus cuniculus [6] = organism: Oryctolagus cuniculus; experiment: Biodistribution in rabbit whole body at 20 MBq after 1.5 hrs; type: ADME, organism-based
Oryctolagus cuniculus [7] = organism: Oryctolagus cuniculus; experiment: Biodistribution in rabbit whole body at 20 MBq after 2.0 hrs; type: ADME, organism-based
Oryctolagus cuniculus [8] = organism: Oryctolagus cuniculus; experiment: Biodistribution in rabbit whole body at 20 MBq after 2.5 hrs; type: ADME, organism-based
Oryctolagus cuniculus [9] = organism: Oryctolagus cuniculus; experiment: Biodistribution in rabbit whole body at 20 MBq after 3.0 hrs; type: ADME, organism-based
Lung [10] = experiment: Biodistribution in rabbit lung at 20 MBq after 0.5 hrs; type: ADME, organism-based, Oryctolagus cuniculus
Lung [11] = experiment: Biodistribution in rabbit lung at 20 MBq after 1 hr; type: ADME, organism-based, Oryctolagus cuniculus
Lung [12] = experiment: Biodistribution in rabbit lung at 20 MBq after 1.5 hrs; type: ADME, organism-based, Oryctolagus cuniculus
Lung [13] = experiment: Biodistribution in rabbit lung at 20 MBq after 2.0 hrs; type: ADME, organism-based, Oryctolagus cuniculus
Lung [14] = experiment: Biodistribution in rabbit lung at 20 MBq after 2.5 hrs; type: ADME, organism-based, Oryctolagus cuniculus
Lung [15] = experiment: Biodistribution in rabbit lung at 20 MBq after 3.0 hrs; type: ADME, organism-based, Oryctolagus cuniculus
Lung [16] = experiment: Biodistribution in rabbit lung at 20 MBq after 20.0 hrs; type: ADME, organism-based, Oryctolagus cuniculus
Thyroid gland [17] = experiment: Biodistribution in rabbit thyroid at 20 MBq; type: ADME, organism-based, Oryctolagus cuniculus
Thyroid gland [18] = experiment: Biodistribution in rabbit thyroid at 20 MBq after 0.5 hrs; type: ADME, organism-based, Oryctolagus cuniculus
Thyroid gland [19] = experiment: Biodistribution in rabbit thyroid at 20 MBq after 1 hr; type: ADME, organism-based, Oryctolagus cuniculus
Thyroid gland [20] = experiment: Biodistribution in rabbit thyroid at 20 MBq after 1.5 hrs; type: ADME, organism-based, Oryctolagus cuniculus
Thyroid gland [21] = experiment: Biodistribution in rabbit thyroid at 20 MBq after 2.0 hrs; type: ADME, organism-based, Oryctolagus cuniculus
Thyroid gland [22] = experiment: Biodistribution in rabbit thyroid at 20 MBq after 2.5 hrs; type: ADME, organism-based, Oryctolagus cuniculus
Thyroid gland [23] = experiment: Biodistribution in rabbit thyroid at 20 MBq after 3.0 hrs; type: ADME, organism-based, Oryctolagus cuniculus
Thyroid gland [24] = experiment: Biodistribution in rabbit thyroid at 20 MBq after 20.0 hrs; type: ADME, organism-based, Oryctolagus cuniculus
Brain [25] = experiment: Biodistribution in rabbit brain at 20 MBq; type: ADME, organism-based, Oryctolagus cuniculus
Brain [26] = experiment: Biodistribution in rabbit brain at 20 MBq after 0.5 hrs; type: ADME, organism-based, Oryctolagus cuniculus
Brain [27] = experiment: Biodistribution in rabbit brain at 20 MBq after 1 hr; type: ADME, organism-based, Oryctolagus cuniculus
Brain [28] = experiment: Biodistribution in rabbit brain at 20 MBq after 1.5 hrs; type: ADME, organism-based, Oryctolagus cuniculus
Brain [29] = experiment: Biodistribution in rabbit brain at 20 MBq after 2.0 hrs; type: ADME, organism-based, Oryctolagus cuniculus
Brain [30] = experiment: Biodistribution in rabbit brain at 20 MBq after 2.5 hrs; type: ADME, organism-based, Oryctolagus cuniculus
Brain [31] = experiment: Biodistribution in rabbit brain at 20 MBq after 3.0 hrs; type: ADME, organism-based, Oryctolagus cuniculus
Brain [32] = experiment: Biodistribution in rabbit brain at 20 MBq after 20.0 hrs; type: ADME, organism-based, Oryctolagus cuniculus

Q: Which Drug uptake (Oryctolagus cuniculus [1]) does the source give for `CN1CCN(C2=Nc3cc([123I])ccc3Nc3ccccc32)CC1` [[123I]I-OZAPINE] here?
A: Its Drug uptake is 54.6 %ID.

Q: What about the Drug uptake (Lung [2]) of the same compound?
A: Its Drug uptake is 14.7 %ID.

Q: And the Drug uptake (Oryctolagus cuniculus [3])?
A: The Drug uptake was 100 %ID.

Q: And the Drug uptake (Oryctolagus cuniculus [4])?
A: The Drug uptake was 98.7 %ID.

Q: What about the Drug uptake (Oryctolagus cuniculus [5]) of the same compound?
A: Its Drug uptake is 95.8 %ID.

Q: What about the Drug uptake (Oryctolagus cuniculus [6]) of the same compound?
A: The Drug uptake was 97.7 %ID.

Q: What about the Drug uptake (Oryctolagus cuniculus [7]) of the same compound?
A: Its Drug uptake is 97.4 %ID.

Q: What about the Drug uptake (Oryctolagus cuniculus [8]) of the same compound?
A: Its Drug uptake is 99.4 %ID.

Q: And the Drug uptake (Oryctolagus cuniculus [9])?
A: Its Drug uptake is 96.9 %ID.

Q: And the Drug uptake (Lung [10])?
A: Its Drug uptake is 10.7 %ID.

Q: What about the Drug uptake (Lung [11]) of the same compound?
A: The Drug uptake was 10.4 %ID.

Q: What about the Drug uptake (Lung [12]) of the same compound?
A: Its Drug uptake is 8.1 %ID.

Q: What about the Drug uptake (Lung [13]) of the same compound?
A: Its Drug uptake is 7.6 %ID.

Q: And the Drug uptake (Lung [14])?
A: Its Drug uptake is 6 %ID.

Q: And the Drug uptake (Lung [15])?
A: The Drug uptake was 6.4 %ID.

Q: What about the Drug uptake (Lung [16]) of the same compound?
A: Its Drug uptake is 2.3 %ID.

Q: And the Drug uptake (Thyroid gland [17])?
A: Its Drug uptake is 1.5 %ID.

Q: What about the Drug uptake (Thyroid gland [18]) of the same compound?
A: Its Drug uptake is 1.4 %ID.

Q: And the Drug uptake (Thyroid gland [19])?
A: Its Drug uptake is 1.4 %ID.

Q: And the Drug uptake (Thyroid gland [20])?
A: Its Drug uptake is 1.3 %ID.

Q: What about the Drug uptake (Thyroid gland [21]) of the same compound?
A: The Drug uptake was 1.4 %ID.

Q: What about the Drug uptake (Thyroid gland [22]) of the same compound?
A: Its Drug uptake is 1.2 %ID.

Q: And the Drug uptake (Thyroid gland [23])?
A: The Drug uptake was 1.4 %ID.

Q: What about the Drug uptake (Thyroid gland [24]) of the same compound?
A: Its Drug uptake is 1.9 %ID.

Q: What about the Drug uptake (Brain [25]) of the same compound?
A: Its Drug uptake is 2.2 %ID.

Q: What about the Drug uptake (Brain [26]) of the same compound?
A: Its Drug uptake is 2.2 %ID.

Q: What about the Drug uptake (Brain [27]) of the same compound?
A: The Drug uptake was 1.8 %ID.

Q: And the Drug uptake (Brain [28])?
A: Its Drug uptake is 1.6 %ID.

Q: And the Drug uptake (Brain [29])?
A: The Drug uptake was 1.5 %ID.

Q: And the Drug uptake (Brain [30])?
A: The Drug uptake was 1.5 %ID.

Q: What about the Drug uptake (Brain [31]) of the same compound?
A: The Drug uptake was 1.2 %ID.

Q: What about the Drug uptake (Brain [32]) of the same compound?
A: The Drug uptake was 0.7 %ID.
